# Assay results reported in article PMC12523303, “Multi-Fused S,N-Heterocyclic Compounds for Targeting α-Synuclein Aggregates” (Cells, 2025).
# “And” between values parts separate entries of the source, which are not always exact repeats. Equal entries are not always repeated. Where two headings read alike, the source gives them in different places.
# Columns and labels:
# [1] = biological target: T1, α-synuclein (α-syn) aggregates in PD brain homogenates (Homo sapiens, UniProt P37840); set-up: method as in PMID 38354298; details: parent ligand, value printed in Figure 2; cited from earlier work
# T1 construct: Anterior cingulate cortex tissue from a Parkinson’s disease (PD) case; tissue Banner Sun Health Research Institute (Dr. Thomas Beach); host or cells: post-mortem human PD anterior cingulate cortex homogenate
# [2] = biological target: post-mortem PD brain tissue; set-up: method as in PMID 38354298; details: cited from earlier work
# MDR1 = biological target: T2, MDR1 (Homo sapiens, UniProt P08183); assay: Bidirectional transport in MDR1-transfected MDCK cell monolayers; type: in vitro ADME; details: dog; for recovery at 2 μM: MDCK-MDR1, MDR1-MDCK permeability assay; for Papp A→B at 2 μM: apical-to-basolateral, read-out: A→B apparent permeability
# T2 construct: host or cells: MDCK cells
# Procedure: (§1) MDR1-transfected MDCK cell monolayers, cultured for 5 days and obtained from the Netherlands Cancer Institute, were used for the in vitro bidirectional transport studies. Cells were maintained in Dulbecco’s Modified Eagle Medium (DMEM) supplemented with 10% fetal bovine serum (FBS) and 1% penicillin–streptomycin. They were subcultured every other day at a split ratio of 1:3 to 1:5. For transport experiments, cells were seeded onto polycarbonate Transwell® filter inserts (Millipore) in 24-well plates at a density of 500,000 cells per well. After 24 h, the medium was replaced, and the cells were cultured for an additional 4 days to allow tight junction formation before initiating the transport assays. Transport studies were performed in duplicate using a 2 μM concentration of test compound, in both apical-to-basolateral (A→B) and basolateral-to-apical (B→A) directions. The apparent permeability coefficient (P_app) was calculated using the following equation: Papp (cm/s) = (Vr/C0) (1/S) (dC/dt)
# (§2) • P_app is the apparent permeability, • V_r is the volume of the receiver chamber, • C0 is the initial concentration in the donor chamber, • S is the surface area of the cell monolayer (0.7 cm^2; for a 24-well insert), • dC/dt is the rate of appearance of the compound in the receiver chamber.
# (§3) The efflux ratio was calculated as: (1) Efflux ratio=Papp B−A/Papp A−B
# (§4) Bioanalysis was carried out using LC-MS/MS.
# [3] = biological target: T3, MDR1-transfected MDCK cells (Homo sapiens, UniProt P08183); assay: as above; type: in vitro ADME; details: MDR1-MDCK
# T3 construct: host or cells: MDCK cells
# Procedure: as §1, §2, §3, §4
# [4] = Metabolic stability in human liver microsomes; type: in vitro ADME; details: for % disappearance at 5 minutes relative to time zero / % disappearance at 15 minutes relative to time zero / % disappearance at 30 minutes relative to time zero / Clearance Category / remaining at 5 min, 1 μM / remaining at 0.5 h, 1 μM: human liver microsomes; for Clearance Category: as per Cyprotex Website; for half-life at 1 μM: human, pH 7.4, human liver microsomes (h-MR); for half-life at 1 μM / remaining at 5 min, 1 μM / remaining at 0.5 h, 1 μM: pooled human liver microsomes; for remaining at 5 min, 1 μM / remaining at 0.5 h, 1 μM: pH 7.4; for % disappearance at 30 minutes relative to time zero / remaining at 0.5 h, 1 μM: 30 min
# Procedure: Metabolic stability assays were conducted using pooled human liver microsomes (HLMs) to evaluate the rate of in vitro metabolic degradation of the test compound. Incubations were carried out in duplicate (n = 2) at a final compound concentration of 1 μM. The protein concentration of the microsomal suspension was adjusted to 0.5 mg/mL using phosphate buffer (100 mM, pH 7.4). Reactions were initiated by the addition of NADPH (final concentration 1 mM) and incubated at 37 °C. Aliquots were taken at four time points: 0, 5, 15, and 30 min. Each reaction was quenched with ice-cold acetonitrile containing internal standard, followed by centrifugation to pellet proteins. Supernatants were analyzed using a validated LC-MS/MS method to determine the concentration of the parent compound at each time point. […] Metabolic stability was assessed by calculating the percentage of the parent compound remaining at each time point. The elimination rate constant (k), half-life (t1/2), and intrinsic clearance (CLint) were derived from the natural log-transformed concentration vs. time data, assuming first-order kinetics.
# [5] = biological target: T1, α-synuclein (α-syn) aggregates in PD brain homogenates; assay: Two point screening assay (30 nM and 300 nM) vs [3H]asyn-44 in human PD brain homogenates; type: binding; details: for remaining activity at 0.03 µM: 30 nM competitor; for remaining activity at 0.3 µM: 300 nM competitor
# Procedure: Screening assays for the test compounds were performed at two concentrations—30 nM and 300 nM—using unlabelled competitors in human PD brain homogenates against [^3H]asyn-44 as previously described. […] Each assay was conducted in triplicate for both concentrations to ensure reproducibility and statistical reliability.
# [6] = biological target: T1, α-synuclein (α-syn) aggregates in PD brain homogenates; assay: In vitro competition (Ki) assay vs [3H]asyn-44 in PD brain homogenates; type: binding; details: 1 nM [3H]asyn-44
# Procedure: Anterior cingulate cortex tissue from a Parkinson’s disease (PD) case was generously provided by Dr. Thomas Beach at the Banner Sun Health Research Institute in Arizona, USA. […] Preparation of the frozen blocks for binding assays followed previously established protocols.
# The equilibrium inhibition constants (Ki) for the unlabelled compounds were measured against [^3H]asyn-44 using our previously reported procedure. For these assays, frozen aliquots of homogenized human brain tissue (stored at −80 °C) were used. Homogenates were prepared at 10 mg/mL in phosphate-buffered saline, then diluted with 50 mM Tris buffer (pH 7.0) to a working concentration of 1 mg/mL.
# Unlabeled competitor compounds were initially dissolved in DMSO at 400 μM, then diluted with Tris buffer to 20 μM, resulting in a 5% DMSO concentration. A serial dilution series (ranging from 6 μM to 4 nM) was prepared in the same 5% DMSO/Tris buffer solution to maintain consistent solvent conditions throughout the assay.
# To perform the binding assay, 50 μL of the appropriately diluted competitor solution was mixed with 50 μL of [^3H]asyn-44 (1 nM final concentration) and 800 μL of Tris buffer containing 20% ethanol and 0.1% bovine serum albumin (BSA). Then, 100 μL of the 1 mg/mL brain homogenate was added, bringing the final tissue concentration to 100 μg/mL. The reaction mixtures were incubated at room temperature for 60 min before filtration through Whatman GF/B glass fibre filters using a Brandel M-24R cell harvester (Gaithersburg, MD, USA). Filters were washed three times with 3 mL of Tris buffer containing 20% ethanol and 0.1% BSA.
# After washing, retained radioactivity was measured using CytoScint-ES scintillation fluid following thorough vortexing. Specific binding was calculated by correcting for nonspecific binding (as described later), and the amount of bound radioligand was derived from the filter-associated radioactivity and the molar activity of the tritiated compound.
# PD brain tissue = biological target: PD brain tissue; set-up: method as in PMID 40256311; details: cited from earlier work
# α-syn fibrils [7] = biological target: α-syn fibrils; set-up: method as in PMID 40256311; details: cited from earlier work
# DLB tissue = tested on: DLB tissue; set-up: method as in PMID 38843838; details: cited from earlier work
# α-syn fibrils [8] = biological target: α-syn fibrils; set-up: method as in PMID 37421950; details: cited from earlier work
# [9] = A→B, read-out: Calculated recovery, A→B direction
# [10] = B→A, read-out: Calculated recovery, B→A direction
# T2 sequence (P08183 whole entry): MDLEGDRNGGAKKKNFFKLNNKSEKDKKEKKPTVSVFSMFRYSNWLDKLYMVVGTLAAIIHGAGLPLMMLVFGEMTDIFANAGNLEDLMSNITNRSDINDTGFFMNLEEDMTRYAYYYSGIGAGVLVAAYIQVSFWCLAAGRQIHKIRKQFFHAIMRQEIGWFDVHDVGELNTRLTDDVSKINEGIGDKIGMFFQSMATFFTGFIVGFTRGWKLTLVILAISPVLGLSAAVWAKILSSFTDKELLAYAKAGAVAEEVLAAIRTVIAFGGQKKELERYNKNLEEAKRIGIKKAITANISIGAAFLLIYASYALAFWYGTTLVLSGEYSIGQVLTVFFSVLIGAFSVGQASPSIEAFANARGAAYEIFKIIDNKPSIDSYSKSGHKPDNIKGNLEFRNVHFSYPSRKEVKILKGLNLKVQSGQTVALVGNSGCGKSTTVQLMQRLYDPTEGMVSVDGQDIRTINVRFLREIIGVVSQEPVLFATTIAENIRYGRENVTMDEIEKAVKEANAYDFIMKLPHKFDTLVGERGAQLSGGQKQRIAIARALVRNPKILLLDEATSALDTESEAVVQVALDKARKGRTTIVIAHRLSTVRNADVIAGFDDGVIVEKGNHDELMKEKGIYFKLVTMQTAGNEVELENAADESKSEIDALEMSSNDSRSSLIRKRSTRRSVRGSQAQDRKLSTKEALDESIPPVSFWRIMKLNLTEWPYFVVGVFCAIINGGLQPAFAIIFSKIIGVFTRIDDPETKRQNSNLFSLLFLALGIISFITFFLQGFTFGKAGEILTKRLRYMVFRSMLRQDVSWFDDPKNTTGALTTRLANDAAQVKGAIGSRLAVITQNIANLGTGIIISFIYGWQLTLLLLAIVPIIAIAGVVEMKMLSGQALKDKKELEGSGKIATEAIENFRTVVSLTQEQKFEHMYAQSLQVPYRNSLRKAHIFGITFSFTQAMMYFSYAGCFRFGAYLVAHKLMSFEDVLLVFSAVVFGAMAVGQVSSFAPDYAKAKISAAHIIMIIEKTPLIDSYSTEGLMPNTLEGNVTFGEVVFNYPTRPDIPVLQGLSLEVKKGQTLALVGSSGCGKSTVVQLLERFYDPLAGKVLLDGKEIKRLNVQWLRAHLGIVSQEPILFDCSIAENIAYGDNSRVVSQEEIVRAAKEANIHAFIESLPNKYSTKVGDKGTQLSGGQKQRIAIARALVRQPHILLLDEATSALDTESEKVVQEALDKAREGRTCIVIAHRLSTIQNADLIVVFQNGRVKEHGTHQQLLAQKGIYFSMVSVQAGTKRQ
# T3 sequence (P08183 whole entry): as above
structure (smiles),measurement,setting,value
F[C@@H]1CCN(c2ccc(-c3ccc4sc(-c5cccnc5)cc4n3)cn2)C1 [Asyn-44],Ki,[1],9 nM
same,Kd,[2],1.85 nM
C[C@H]1O[C@@H](O[C@H]2[C@@H](O)C[C@H](O[C@H]3[C@@H](O)C[C@H](O[C@H]4CC[C@@]5(C)[C@H](CC[C@@H]6[C@@H]5C[C@@H](O)[C@]5(C)[C@@H](C7=CC(=O)OC7)CC[C@]65O)C4)O[C@@H]3C)O[C@@H]2C)C[C@H](O)[C@@H]1O [Digoxin],recovery at 2 μM,MDR1; [9],79.7%
same,recovery at 2 μM,MDR1; [10],108%
same,Papp A→B at 2 μM,"MDR1; MDCK-MDR1, 2 μM",1.65 ×10⁻⁶ cm/s
same,Efflux Category,[3],Substrate of efflux
same,Permeability Category,[3],Low
F[C@@H]1CCN(c2ccc(-c3ccc4sc(-c5cncs5)cc4n3)cn2)C1 [LMD-006],% disappearance at 5 minutes relative to time zero,[4],60.2%
same,% disappearance at 15 minutes relative to time zero,[4],88.1%
same,% disappearance at 30 minutes relative to time zero,[4],95.7%
same,Clearance Category,[4],High
same,half-life at 1 μM,[4],6.81 min
same,"remaining at 5 min, 1 μM",[4],39.6%
same,"remaining at 0.5 h, 1 μM",[4],4.32%
same,remaining activity at 0.03 µM,[5],53%
same,remaining activity at 0.3 µM,[5],2%
same,Ki,[6],12 nM
F[C@@H]1CCN(c2ccc(-n3cc4sc(-c5cccnc5)cc4n3)cn2)C1 [LMD-032],% disappearance at 5 minutes relative to time zero,[4],46.7%
same,% disappearance at 15 minutes relative to time zero,[4],79.2%
same,% disappearance at 30 minutes relative to time zero,[4],95.0%
same,Clearance Category,[4],High
same,half-life at 1 μM,[4],7.05 min
same,"remaining at 5 min, 1 μM",[4],53.3%
same,"remaining at 0.5 h, 1 μM",[4],5.02%
same,remaining activity at 0.03 µM,[5],38%
same,remaining activity at 0.3 µM,[5],25%
same,Ki,[6],50 nM
F[C@@H]1CCN(c2cnc(-c3csc4ccc(-c5cccnc5)nc34)cn2)C1 [LMD-044],% disappearance at 5 minutes relative to time zero,[4],54.3%
same,% disappearance at 15 minutes relative to time zero,[4],88.3%
same,% disappearance at 30 minutes relative to time zero,[4],96.3%
same,Clearance Category,[4],High
same,half-life at 1 μM,[4],6.37 min
same,"remaining at 5 min, 1 μM",[4],45.7%
same,"remaining at 0.5 h, 1 μM",[4],3.71%
same,remaining activity at 0.03 µM,[5],38%
same,remaining activity at 0.3 µM,[5],4%
same,Ki,[6],9.1 nM
F[C@@H]1CCN(c2cnc(-c3ccc4scc(-c5cccnc5)c4n3)cn2)C1 [LMD-045],% disappearance at 5 minutes relative to time zero,[4],34.7%
same,% disappearance at 15 minutes relative to time zero,[4],65.6%
same,% disappearance at 30 minutes relative to time zero,[4],86.5%
same,Clearance Category,[4],High
same,half-life at 1 μM,[4],10.5 min
same,"remaining at 5 min, 1 μM",[4],65.3%
same,"remaining at 0.5 h, 1 μM",[4],13.5%
same,remaining activity at 0.03 µM,[5],36%
same,remaining activity at 0.3 µM,[5],13%
same,Ki,[6],13 nM and 13.3 nM
F[C@@H]1CCN(c2ccc(-n3ncc4sc(-c5cncs5)cc43)cn2)C1 [LMD-046],t1/2,[4]; human liver microsomes (h-MR),unstable
same,% disappearance at 5 minutes relative to time zero,[4],96.6%
same,% disappearance at 15 minutes relative to time zero,[4],97.9%
same,"remaining at 5 min, 1 μM",[4],3.43%
same,remaining activity at 0.03 µM,[5],43%
same,remaining activity at 0.3 µM,[5],8%
same,Ki,[6],12 nM and 11.8 nM
FC1CCN(c2cnc(-n3cc4sc(-c5cccnc5)cc4n3)cn2)CC1 [LMD-051],% disappearance at 5 minutes relative to time zero,[4],24.2%
same,% disappearance at 15 minutes relative to time zero,[4],64.3%
same,% disappearance at 30 minutes relative to time zero,[4],69.7%
same,Clearance Category,[4],High
same,half-life at 1 μM,[4],17 min
same,"remaining at 5 min, 1 μM",[4],75.8%
same,"remaining at 0.5 h, 1 μM",[4],30.3%
same,remaining activity at 0.03 µM,[5],38%
same,remaining activity at 0.3 µM,[5],4%
same,Ki,[6],9.2 nM
F[C@@H]1CCN(c2cc(-n3cc4sc(-c5cccnc5)cc4n3)ncn2)C1 [LMD-052],% disappearance at 5 minutes relative to time zero,[4],60.3%
same,% disappearance at 15 minutes relative to time zero,[4],82.8%
same,% disappearance at 30 minutes relative to time zero,[4],94.4%
same,Clearance Category,[4],High
same,half-life at 1 μM,[4],7.6 min
same,"remaining at 5 min, 1 μM",[4],39.7%
same,"remaining at 0.5 h, 1 μM",[4],5.61%
same,remaining activity at 0.03 µM,[5],27%
same,remaining activity at 0.3 µM,[5],2%
same,Ki,[6],6 nM
CC(C)NCC(O)COc1cccc2ccccc12 (stereo not drawn) [Propranolol],recovery at 2 μM,MDR1; [9],95%
same,recovery at 2 μM,MDR1; [10],116%
same,Papp A→B at 2 μM,"MDR1; MDCK-MDR1, 2 μM",9.28 ×10⁻⁶ cm/s
same,Papp B→A at 2 μM,"MDR1; MDCK-MDR1, basolateral-to-apical, 2 μM, read-out: B→A apparent permeability",8.03 ×10⁻⁶ cm/s
same,Efflux Category,[3],Not a substrate
same,Permeability Category,[3],Medium
[11CH3]Oc1ccc(NC(=O)c2cnc(N3CCN(c4ccccn4)CC3)nc2N)cc1 [[^11C]M503-1619],Kd,PD brain tissue,1.5 nM
same,Ki,α-syn fibrils [7],6.5 nM
CNc1ccc(C#C/C=C/c2nc3ccc(OCC(O)C[18F])cc3s2)cn1 (stereo not drawn) [[^18F]C05-05],IC50,DLB tissue,1.5 nM
Cc1cc2nc(/C=C/c3ccc(O)c(Br)c3)sc2cc1N(C)CCOCC[18F] [[^18F]F0502B],Kd,α-syn fibrils [8],11 nM
